The results in this text go back to PubChem BioAssay (NCI).

Some test systems named below: M14 melanoma; SF-268 CNS; HCT-15 colon; SK-MEL-28 melanoma; HCT-116 colon; SW-620 colon; SN12C renal; NCI-H23 lung; NCI/ADR-RES ovarian; NCI-H522 lung.
Common to all, as to test: DTP human tumour cell line panel, 48 h

“And” between values parts separate entries of the source, which are not always exact repeats. Equal entries are not always repeated.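 Protocol summary: plate cells (96-well), add compound at 5 concentrations, incubate 48 h, interpolate endpoints linearly. GI50: concentration for 50% inhibition of growth. TGI: total growth inhibition.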 Some results are limits rather than exact numbers.

One may read the TGI as the concentration giving total growth inhibition. A lower TGI goes with more potent growth arrest. For `O=C(O)C1(Cc2ccc3c(c2)CCC3)Cc2cc3c(cc2C1)CCC3`, the TGI in the assay with M14 melanoma, with SF-268 CNS, in the assay on HCT-15 colon, in the assay on SK-MEL-28 melanoma, in the assay on HCT-116 colon and with SW-620 colon was > 100 µM throughout.
As for `N#Cc1nc(Cc2cccs2)oc1N`, the total growth inhibition concentration (TGI) in the assay with M14 melanoma, in the assay with SF-268 CNS, with HCT-15 colon, in the assay on SK-MEL-28 melanoma, in the assay on HCT-116 colon and in the assay with SN12C renal was > 100 µM throughout. Also, the TGI with SW-620 colon is > 100 µM.
For the compound `O/N=C1/CCCCC1NO` (stereo not given), the TGI in the assay with M14 melanoma, in the assay on SF-268 CNS, with HCT-15 colon, in the assay on NCI-H23 lung, in the assay with NCI/ADR-RES ovarian and in the assay with SK-MEL-28 melanoma was > 100 µM in each case. The total growth inhibition concentration (TGI) in the assay on HCT-116 colon, with SN12C renal and in the assay on SW-620 colon was > 100 µM in each case.
Usually GI50 stands for the concentration at which growth is held to half of that of the control. For the compound `Brc1ccc2[nH]cc(-c3nc(-c4c[nH]c5ccncc45)cs3)c2c1`, the GI50 with M14 melanoma is 1.83 µM; in the assay on NCI-H23 lung, 1.64 µM; in the assay with SK-MEL-28 melanoma it was 1.73 µM; with SN12C renal it was 1.79 µM. Further, the TGI with M14 melanoma is 3.42 µM; in the assay on NCI-H23 lung, 3.17 µM; in the assay on SK-MEL-28 melanoma it was 3.13 µM; in the assay on SN12C renal, 3.32 µM.
For the compound `CC1(C)CN=C(c2ccc3ccccc3c2O)N1`, the TGI in the assay on M14 melanoma, with SF-268 CNS, in the assay on HCT-15 colon, in the assay with NCI-H23 lung, in the assay with NCI/ADR-RES ovarian and in the assay on SK-MEL-28 melanoma was > 100 µM throughout. In addition, the TGI with HCT-116 colon, in the assay on SN12C renal and in the assay on SW-620 colon was > 100 µM throughout.
For `CC(=O)Nc1oc(C)nc1C#N`, the TGI in the assay on M14 melanoma, with SF-268 CNS, with HCT-15 colon, in the assay with SK-MEL-28 melanoma, in the assay on HCT-116 colon and with SN12C renal was > 100 µM throughout. Further, the TGI in the assay on SW-620 colon was > 100 µM.
Turning to `O=C(c1ccccc1)c1ccc2c(c1)N=C(c1ccc(Cl)c(Cl)c1)CC(c1ccc3ccccc3c1)N2` (stereo not given), the total growth inhibition concentration (TGI) in the assay with M14 melanoma, with SF-268 CNS, in the assay with HCT-15 colon, in the assay on NCI-H23 lung, in the assay on NCI-H522 lung and in the assay with SK-MEL-28 melanoma was > 100 µM each time. The total growth inhibition concentration (TGI) in the assay on HCT-116 colon, in the assay with SN12C renal and with SW-620 colon was > 100 µM in each case.
For `Cc1cn(C2CC(O)C(Cn3cc(Cn4nc(Br)c(=O)[nH]c4=O)nn3)O2)c(=O)[nH]c1=O` (stereo not given), the TGI in the assay on M14 melanoma, in the assay with SF-268 CNS, in the assay with HCT-15 colon, in the assay on NCI-H23 lung, in the assay with NCI/ADR-RES ovarian and in the assay with SK-MEL-28 melanoma was > 100 µM throughout. The total growth inhibition concentration (TGI) in the assay on HCT-116 colon, in the assay on SN12C renal and in the assay with SW-620 colon was > 100 µM each time.
In the case of `CCn1c2ccccc2c2cc(NC(=O)c3c(C)[nH]c(=O)[nH]c3=S)ccc21`, the concentration for total growth inhibition (TGI) in the assay on M14 melanoma was 82.2 µM; with HCT-15 colon it was > 100 µM; with NCI-H23 lung, > 100 µM; with NCI/ADR-RES ovarian, > 100 µM; in the assay on SK-MEL-28 melanoma it was > 100 µM; in the assay on HCT-116 colon it was > 100 µM. In addition, the TGI in the assay on SN12C renal and in the assay with SW-620 colon was > 100 µM throughout.
Consider `O=c1oc2ccccc2cc1-c1nc2ccccc2s1`, for which the total growth inhibition concentration (TGI) is > 47.6 µM in the assay on M14 melanoma; 25.2 µM in the assay with SF-268 CNS; 39.4 µM in the assay with NCI-H23 lung; 21.5 µM in the assay on NCI-H522 lung; > 66 µM in the assay with SK-MEL-28 melanoma; > 50.7 µM in the assay on SN12C renal. Moreover, in the assay with SW-620 colon, the concentration for total growth inhibition (TGI) is 34.8 µM.
Turning to `O=C1/C(=C/c2ccc(Cl)c(Cl)c2)CN(C(=O)CCN2CCOCC2)C/C1=C\c1ccc(Cl)c(Cl)c1`, in the assay on SW-620 colon, the 50% growth inhibitory concentration (GI50) is 1.39 µM and 0.229 µM and 0.249 µM; the TGI was 3.32 µM and 0.563 µM and 0.746 µM.
For `Cc1cccc(-c2cc(=O)c3c(C)ccnc3[nH]2)c1`, the TGI with M14 melanoma was > 100 µM; in the assay with SF-268 CNS, > 100 µM; with HCT-15 colon, > 100 µM; in the assay on NCI-H23 lung, > 100 µM; in the assay with NCI-H522 lung, 0.798 µM; in the assay on SK-MEL-28 melanoma, > 100 µM. In addition, the TGI with HCT-116 colon was > 33.5 µM; with SN12C renal it was > 100 µM.
Regarding `CC(C)=CCC/C(C)=C/CCC1(C)C2COC(=O)C21` (stereo not given), the concentration for total growth inhibition (TGI) with SF-268 CNS, in the assay on HCT-15 colon, with NCI-H23 lung, with NCI-H522 lung, in the assay with SK-MEL-28 melanoma and with HCT-116 colon was > 100 µM in each case. Moreover, the TGI with SN12C renal and with SW-620 colon was > 100 µM each time.
For `O=c1c2cc(Cl)ccc2n2nnc3ccc(NCCNCCO)c1c32`, the total growth inhibition concentration (TGI) worked out at 2.88 µM in the assay with M14 melanoma; 8.86 µM with SF-268 CNS; 2.59 µM in the assay on HCT-15 colon; 2.86 µM in the assay with NCI-H23 lung; 3.03 µM with NCI-H522 lung; 3.26 µM in the assay on SK-MEL-28 melanoma. Further, the TGI in the assay on HCT-116 colon was found to be 2.33 µM; in the assay on SN12C renal, 2.88 µM; in the assay with SW-620 colon it was 2.51 µM.
For the compound `CCCCC[C@@H]1OC(=O)[C@@]2(CC3c4ccccc4C2c2ccccc23)[C@H]1C(=O)OC`, the total growth inhibition concentration (TGI) in the assay with M14 melanoma, with SF-268 CNS, in the assay with HCT-15 colon, with NCI-H23 lung, in the assay on NCI/ADR-RES ovarian and in the assay with HCT-116 colon was > 100 µM each time. For the same compound, the concentration for total growth inhibition (TGI) in the assay on SN12C renal and in the assay on SW-620 colon was > 100 µM throughout.
Consider `C#Cc1ccccc1C(=O)OC`, for which the concentration for total growth inhibition (TGI) with M14 melanoma, in the assay on HCT-15 colon, with NCI-H23 lung, with NCI-H522 lung, in the assay on SK-MEL-28 melanoma and in the assay with HCT-116 colon was > 100 µM each time. The concentration for total growth inhibition (TGI) in the assay on SN12C renal and with SW-620 colon was > 100 µM in each case.
Take `Cc1cc(=O)[nH]c(S(=O)(=O)NC(=S)Nc2ccc(Br)cc2)n1`: the total growth inhibition concentration (TGI) is > 100 µM in the assay on M14 melanoma; > 100 µM in the assay with SF-268 CNS; > 100 µM in the assay with HCT-15 colon; > 100 µM with NCI-H23 lung; 70 µM with NCI-H522 lung; > 100 µM with NCI/ADR-RES ovarian. Moreover, the TGI in the assay with SK-MEL-28 melanoma, with SN12C renal and in the assay on SW-620 colon was > 100 µM each time.
Consider `CC1Oc2c(c(O)cc3oc(=O)cc(-c4ccccc4)c23)C(=O)C1C` (stereo not given), for which the TGI in the assay with M14 melanoma, with SF-268 CNS, in the assay with HCT-15 colon, in the assay on NCI-H23 lung, in the assay with NCI-H522 lung and in the assay on SK-MEL-28 melanoma was > 100 µM each time. Further, the TGI in the assay with SN12C renal and in the assay with SW-620 colon was > 100 µM throughout.
With `CCOC(=O)Cn1c(C)nc2nn(Cc3ccccc3)cc2c1=O`, the concentration for total growth inhibition (TGI) in the assay on M14 melanoma, in the assay on SF-268 CNS, in the assay with HCT-15 colon, in the assay with NCI-H23 lung, in the assay on NCI/ADR-RES ovarian and with SK-MEL-28 melanoma was > 100 µM each time. Also, the TGI in the assay on HCT-116 colon, with SN12C renal and in the assay on SW-620 colon was > 100 µM in each case.
As to `Cc1ccc(N=Nc2cc(=O)[nH]c(=O)[nH]2)cc1C`, the TGI was 41.1 µM with M14 melanoma; 42.6 µM with SF-268 CNS; 11.2 µM in the assay with HCT-15 colon; > 100 µM in the assay with NCI/ADR-RES ovarian; 34.3 µM in the assay with SK-MEL-28 melanoma; 22.5 µM with HCT-116 colon. Further, the TGI in the assay on SN12C renal amounted to 18.6 µM; with SW-620 colon, 14.9 µM.
As for `COc1ccc(/C(Cl)=C(\C=O)c2ccc(Cl)cc2)cc1`, the TGI in the assay with M14 melanoma was > 100 µM; in the assay on SF-268 CNS, 58.7 µM; in the assay on HCT-15 colon it was > 100 µM; in the assay on NCI-H23 lung it was 17.1 µM; in the assay with NCI-H522 lung, 5.89 µM; with HCT-116 colon it was 20.8 µM. Also, the TGI with SN12C renal is 13.6 µM; in the assay with SW-620 colon, > 100 µM.
Regarding `Cc1ccc(Oc2cc(C)ccc2P(=O)(O)O)cc1`, the concentration for total growth inhibition (TGI) with M14 melanoma, with SF-268 CNS, with HCT-15 colon, in the assay with NCI-H23 lung, in the assay with NCI-H522 lung and in the assay with SK-MEL-28 melanoma was > 100 µM in each case. Moreover, the total growth inhibition concentration (TGI) in the assay with HCT-116 colon, with SN12C renal and in the assay with SW-620 colon was > 100 µM each time.
Take `CCC[CH2][Ge]([CH2]CCC)([CH2]CCC)[O]C(=O)CCl`: the GI50 is 1.25 µM in the assay on M14 melanoma; 10.2 µM in the assay with SF-268 CNS; 0.546 µM with HCT-15 colon; 0.115 µM in the assay on NCI-H23 lung; 0.214 µM in the assay with NCI-H522 lung; 11.5 µM in the assay on SK-MEL-28 melanoma. Besides, the figures for the GI50 in the assay with HCT-116 colon, with SN12C renal and with SW-620 colon were 0.498 µM, 1.46 µM and 4.19 µM, respectively. Besides, the TGI in the assay with M14 melanoma amounted to 6.94 µM; with SF-268 CNS, 23.1 µM; with HCT-15 colon, 11.5 µM; in the assay on NCI-H23 lung it was 12.5 µM; in the assay on SK-MEL-28 melanoma it was 23.6 µM; in the assay on HCT-116 colon, 13.3 µM. In addition, the concentration for total growth inhibition (TGI) in the assay on SN12C renal worked out at 19.3 µM; in the assay on SW-620 colon, 17.4 µM.
As to `Nc1ncnc2c(C3OC(CO)C(O)C3O)c[nH]c12` (stereo not given), the total growth inhibition concentration (TGI) in the assay with M14 melanoma is 0.336 µM and 0.225 µM; in the assay on SF-268 CNS, 0.559 µM; with HCT-15 colon, 0.333 µM and 0.3 µM; with NCI-H23 lung, 0.0792 µM and 0.0756 µM; in the assay with NCI-H522 lung, 0.0601 µM and 0.0389 µM; in the assay on SK-MEL-28 melanoma, 0.51 µM and 0.734 µM. Also, the TGI with HCT-116 colon was 0.16 µM; in the assay on SN12C renal it was 0.0946 µM and 0.537 µM. In addition, the results for the GI50 in the assay on NCI-H23 lung and in the assay on SK-MEL-28 melanoma were < 0.0104 µM and 0.0452 µM, respectively.
